Where no end group is shown, it is not given here.
Experiments:
[1] = tested on: P. aeruginosa 14 strain (PA14), ancestor strain; type: cell-based, Pseudomonas aeruginosa; settings: ancestral strain PA14; MH broth, 5 × 10^5 CFU/ml, 96-well serial dilution, 24 h, inhibition of growth by at least 90% (OD595); 3 replicate lines per peptide
Method: MIC values were determined following a standard serial dilution protocol, as described elsewhere. Briefly, PA14 cells were grown overnight in MH broth, at 37°C and 200 rpm. Subsequently, cells were diluted 1:100 in MH broth and grown until reaching an optical density at 595 nm (OD595) of 0.1. Then, 100 μl of 5 × 10^5 CFU/ml were inoculated into each well in 96-well plates that contained a serial dilution of AMPs or RPMs. Each plate contained 3 replicate lines per peptide. The MICs were defined as the lowest concentration at which there was inhibition of bacterial growth by at least 90%, after 24 h, by measuring the OD595.
The MIC was determined on 3 occasions: (1) prior to the experiment, to determine the concentration of our focal peptides to be used at the start of the experimental evolution (i.e., MIC of the ancestor strain); (2) at the end of the experimental evolution, detect an increase, or decrease, in the resistance of the experimentally evolved strains to our peptides of interest; (3) to evaluate whether the experimental evolution of a certain treatment was accompanied by an increase, or decrease, in resistance or sensitivity to another antimicrobial (i.e., cross-resistance or collateral-sensitivity).

[2] = tested on: PA14 strains evolved in the presence of an AMP/RPM; experiment: Fitness cost of evolved strains (growth curves in the absence of AMPs); type: cell-based, Pseudomonas aeruginosa; settings: growth in MH broth without AMPs, OD595 every 15 min for 24 h, normalised to ancestor; n = 6
Method: Bacterial cells were grown overnight in MH broth and then diluted to an OD595 of 0.1. For each strain, 200 μl of culture were transferred into 96-well plates, with 3 technical replicates. Optical density (OD595) was measured every 15 min for 24 h using an Epoch 2 microplate reader (BioTek). Lag time and Vmax were assessed using the plate reader software (Gen5). The values measured in the experimentally evolved strains were divided by the values of their respective ancestors and expressed as lag time fold-change and Vmax fold-change (see “Statistical analysis” section).
Similarly, we normalised both fitness readouts duration of the lag phase (lag time) and maximum slope of the bacterial growth curve (Vmax) to the readouts of the ancestor of the given evolved strain by dividing the values of the evolved strains to that of their respective ancestors. The resulting variable is a fold-change in Vmax and lag time during experimental evolution: Vmax fold-change and lag time fold-change.

Row | Substance | MIC [1] [µg/mL] | Lag time fold-change of evolved strains compared to control strains [2]
1 | KIAKRIWKILRRR [PA-13] | 25 | –
2 | p-KKKFK [SLM3, specific palmitic acid-modified 5-mer peptide, composed of L-Lysine and/or L-Phenylalanine, part of a 32-peptide library] | – | significantly increased lag times

Source: article PMC11218975, “The evolution of antimicrobial peptide resistance in Pseudomonas aeruginosa is severely constrained by random peptide mixtures” (PLOS Biology, 2024)
